Measured values published in US20100317831A1, “PROBE COMPOUNDS FOR PROTEIN TYROSINE PHOSPHATASE (PTP) AND PRECURSORS THEREOF” (NATIONAL TAIWAN UNIVERSITY, priority 2009, published 2010).

Molecular target: T1, PTP1B (Homo sapiens, UniProt P18031)
T1 sequence (P18031 1-435): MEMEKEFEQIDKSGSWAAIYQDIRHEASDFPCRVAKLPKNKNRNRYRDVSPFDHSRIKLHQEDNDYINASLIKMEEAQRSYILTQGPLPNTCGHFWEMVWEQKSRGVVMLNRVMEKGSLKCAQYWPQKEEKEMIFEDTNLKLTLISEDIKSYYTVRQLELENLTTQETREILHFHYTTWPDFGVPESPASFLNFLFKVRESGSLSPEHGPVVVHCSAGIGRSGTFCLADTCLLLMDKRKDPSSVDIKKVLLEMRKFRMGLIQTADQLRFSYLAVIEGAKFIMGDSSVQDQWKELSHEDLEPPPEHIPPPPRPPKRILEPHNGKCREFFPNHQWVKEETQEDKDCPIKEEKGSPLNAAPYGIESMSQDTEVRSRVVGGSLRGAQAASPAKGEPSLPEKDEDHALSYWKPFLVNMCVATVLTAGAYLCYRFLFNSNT
Assay: PTP1B labeling by probe compound (streptavidin immunoblot)
Format: biochemical
From the text: FIG. 1b was visualized by immunoblotting analysis (streptavidin) after transferring the reaction products onto a nitrocellulose membrane. […] Since the probe compounds themselves are also the substrates of the corresponding PTPs, the results clearly indicate that the newly developed latent trapping unit well mimics the phosphorotyrosine residue of the natural substrate. […] In the absence of PTPs, they underwent hydrolysis slowly and the purity remained greater than 90% even after 1 hr (as determined by HPLC).
To test if probe compounds 30a-c could differentiate PTPs from other phosphatases, we conducted labeling experiments on nine phosphatases, including five PTPs, alkaline phosphatase (ALP), PTEN (dephosphorylating the phosphatidylinositol 3,4,5-trisphosphate), and two serine/threonine phosphatases (PPP1CA and PPM1A).
In order to further study how well probe compounds 30a-c could differentiate between the various PTPs, we compared the labeling intensities on five PTPs (PTP1B, SHP2, TCPTP, VHR, and PTPPEST) with those obtained from probe 1 (LCL2). When the intensities of the probe compounds 30a-c-labeled bands in each set of experiments were normalized relative to that of a probe 1-labeled band, we were able to establish a quantitative comparison of their labeling preference (as shown in FIGS. 4a to 4e). […] Of the five PTPs tested, the substrate specificities of PTP1B, TCPTP, and SHP2 were better studied than those of VHR and PTP-PEST. […] The trend of substrate preference obtained from this study was similar to those determined by other methods. We have also compared the labeling intensity data for the other two PTPs, VHR (a dual-specificity phosphatase) and PTP-PEST (a classical PTP). […] This provides evidence to support the concept that probe compounds with added amino acid residues flanking the latent trapping device were able to influence their target specificities.

CC(C)CC(NC(=O)C(Cc1ccc(OP(=O)(O)O)c(CF)c1)NC(=O)C(CCC(=O)O)NC(=O)CCC(=O)NCCOCCOCCNC(=O)CCCCC1SC[C@H]2NC(=O)N[C@@H]12)C(N)=O (stereo partly drawn) [compound 30b]
biotinylated adduct (labeling of PTP1B) with phosphatase inhibitor present (Na3VO4 present in the incubation mixture): no biotinylated adduct was observed | activity dependence of labeling of PTPs (PTP1B and TCPTP, conclusion from Na3VO4 control): activity dependent | biotinylated protein bands (labeling of PTP1B) (immunoblotting analysis (streptavidin), FIG. 1b): Intense biotinylated protein bands were observed
